Source: patent publication US5936088A, “Substituted azacyclic or azabicyclic compounds with affinity and selectivity for nicotinic cholinergic receptors” (Novo Nordisk A/S, priority 1995, dated 1999)
Counter-ions that a name gives are not always drawn. Like-named read-outs stand apart in the source and are kept apart here.

How the values were obtained:
[1] = biological target: T1, nicotinic acetylcholine receptors (Rattus norvegicus, UniProt P09483+P12390); assay: inhibition of specific binding of ^3 H-methylcarbamylcholine (^3 H-MCC); conditions: for IC50: rat cortical receptors, ^3 H-MCC 2 nM, 0° C., 60 min
T1 construct: Fresh or frozen rat, brain tissue (hippocampus or cortex) was homogenized; from tissue
Description: The pharmacological properties of the compounds of the invention can be illustrated by determining their capability to inhibit the specific binding of ^3 H-methylcarbamylcholine (^3 H-MCC) (Abood and Grassi, Biochem. Pharmacol., Vol. 35, pp. 4199-4202, (1986)).
^3 H-MCC labels the nicotinic receptors in the CNS. The inhibitory effect on ^3 H-MCC binding reflects the affinity for nicotinic acetylcholine receptors.
Fresh or frozen rat, brain tissue (hippocampus or cortex) was homogenized in assay buffer (50 mM Tris-HCl, pH 7.4, 120 mM NaCl, 5 mM KCl, 2 mM CaCl2, 1 mM MgCl2) and centrifuged for 10 min. at 40.000×g. Pellets were subsequently reconstituted in assay buffer and an appropriate amount of tissue sample was mixed in tubes with ^3 H-methylcarbamylcholine (NEN, NET-951; final concentration 2 nM) and test drug. The tubes were incubated at 0° C. for 60 min. Unbound ligand was separated from bound ligand by vacuum filtration through GF/B filters presoaked in 0.5% polyethylenimine. Filters were washed three times with 5 ml wash buffer (50 mM Tris-HCl, pH 7.4) and transferred to vials. 4 ml scintillation fluid was added and the radioactivity was measured by scintillation counting. Unspecific binding was measured with 10 μM nicotine.
The IC50 values of the test compounds were determined by nonlinear regression analyses (GraphPad InPlot).
Table I illustrates the affinity of the compounds of the present invention for nicotinic and muscarinic receptors as determined by ^3 H-MCC and ^3 H-Oxo binding to rat cortical receptors. The compounds, however, show selective affinity for nicotinic receptors as compared to muscarinic receptors, i.e OXO/MCC>1.

[2] = biological target: muscarinic acetylcholine receptors; assay: inhibition of specific binding of ^3 H-Oxotremorine-M (^3 H-Oxo); conditions: rat cortical receptors; ^3 H-Oxotremorine 1.0 nM, 25° C., 30 min
Description: Furthermore, the pharmacological properties of the compounds of the invention can also be illustrated by determining their capability to inhibit the specific binding of ^3 H-Oxotremorine-M (^3 H-Oxo). Birdsdall N. J. M., Hulme E. C., and Burgen A. S. V. (1980). "The Character of Muscarinic Receptors in Different Regions of the Rat Brain". Proc. Roy. Soc. London (Series B) 207,1.
^3 H-Oxo labels muscarinic receptor in the CNS (with a preference for agonist domains of the receptors). Three different sites are labelled by ^3 H-Oxo. […] Using the present experimental conditions only the high and medium affinity sites are determined.
The inhibitory effects of compounds on ^3 H-Oxo binding reflects the affinity for muscarinic acetylcholine receptors.
All preparations are performed at 0-4° C. unless otherwise indicated. […]
The final pellet is homogenized in 20 mM Hepes pH: 7.4 (100 ml per g of original tissue) and used for binding assay. […] Non-specific binding is determined in triplicate using arecoline (1 ug/ml, final concentration) as the test substance. […] The amount of radioactivity on the filters are determined by conventional liquid scintillation counting. […]
Table I illustrates the affinity of the compounds of the present invention for nicotinic and muscarinic receptors as determined by ^3 H-MCC and ^3 H-Oxo binding to rat cortical receptors. […]

cognition = conditions: age related; cited from earlier work
substantia nigra = conditions: chronic nicotine; lesioning; cited from earlier work
dopaminergic effects = conditions: various behavioral models; cited from earlier work
[3] = test system: dopamine release in the nucleus accumbens; conditions: nucleus accumbens versus striatum; cited from earlier work
attention and memory = conditions: healthy humans and Alzheimer's disease patients; cited from earlier work
Tourette's syndrome = conditions: in vivo; cited from earlier work
[4] = biological target: muscarinic acetylcholine receptors; conditions: read-out: affinity of ^3 H-Oxo labelled site, cited from earlier work

T1 sequence (P09483 31-630): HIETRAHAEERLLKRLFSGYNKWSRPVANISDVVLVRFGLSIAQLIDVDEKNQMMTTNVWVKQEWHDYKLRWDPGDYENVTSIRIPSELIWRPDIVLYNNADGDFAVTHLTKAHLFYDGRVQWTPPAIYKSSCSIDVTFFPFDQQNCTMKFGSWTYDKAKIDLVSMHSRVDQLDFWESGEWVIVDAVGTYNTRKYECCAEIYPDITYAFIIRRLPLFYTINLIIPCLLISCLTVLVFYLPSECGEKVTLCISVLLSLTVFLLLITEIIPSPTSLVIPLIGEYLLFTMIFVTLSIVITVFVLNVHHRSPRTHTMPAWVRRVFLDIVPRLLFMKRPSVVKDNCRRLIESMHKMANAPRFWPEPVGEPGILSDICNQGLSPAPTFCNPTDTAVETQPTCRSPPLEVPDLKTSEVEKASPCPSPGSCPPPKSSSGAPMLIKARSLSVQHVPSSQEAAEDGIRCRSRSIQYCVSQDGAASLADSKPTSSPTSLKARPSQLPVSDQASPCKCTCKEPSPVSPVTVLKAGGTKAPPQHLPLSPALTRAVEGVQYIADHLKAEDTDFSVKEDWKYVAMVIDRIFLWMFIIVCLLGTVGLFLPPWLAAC
T1 sequence (P12390 25-500): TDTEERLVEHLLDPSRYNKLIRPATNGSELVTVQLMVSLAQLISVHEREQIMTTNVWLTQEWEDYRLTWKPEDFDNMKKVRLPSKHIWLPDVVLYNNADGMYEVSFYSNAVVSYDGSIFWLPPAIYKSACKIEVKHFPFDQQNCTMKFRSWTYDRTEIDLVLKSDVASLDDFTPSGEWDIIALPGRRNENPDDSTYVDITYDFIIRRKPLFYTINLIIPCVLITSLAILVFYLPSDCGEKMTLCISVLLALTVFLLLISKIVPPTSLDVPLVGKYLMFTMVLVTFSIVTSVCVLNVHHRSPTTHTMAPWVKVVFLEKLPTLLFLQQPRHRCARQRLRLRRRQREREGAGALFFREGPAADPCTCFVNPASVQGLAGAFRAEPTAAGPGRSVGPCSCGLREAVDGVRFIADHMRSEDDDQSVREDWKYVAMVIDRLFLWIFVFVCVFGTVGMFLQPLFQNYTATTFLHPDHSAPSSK

CC(=O)/C=C1/CN2CCC1CC2 [Compound 2, (E)-3-Acetylmethylene-1-azabicyclo[2.2.2]octane oxalate]
IC50 [1]: > 300 nM | IC50 [2]: < 1000 nM

CNC1(C)C2CCC(C2)C1(C)C (centres unmarked) [mecamylamine]
cognitive impairment (cognition): shown to cause cognitive impairment in an age related way

CN1CCCC1c1cccnc1 (centres unmarked) [nicotine]
protection against cell loss in the substantia nigra (substantia nigra): may protect against cell loss in the substantia nigra caused by lesioning | potentiation of dopaminergic effects (dopaminergic effects): will potentiate dopaminergic effects in various behavioral models | stimulation of dopamine release [3]: stimulates dopamine release in the nucleus accumbens more potently than in striatum | attention and memory (attention and memory): improved attention and memory in healthy humans | effects in Tourette's syndrome (Tourette's syndrome): shown beneficial effects in Tourette's syndrome

C[N+](C)(C)CC#CCN1CCCC1=O [^3 H-Oxo, ^3 H-Oxotremorine-M]
Kd ([4]; high affinity site): 1.8 nM | Kd ([4]; medium affinity site): 20 nM | Kd ([4]; third (lowest affinity) site, not determined under the present conditions): 3000 nM

CC(=O)/C=C1\CN2CCC1CC2.O=C(O)C(=O)O [Compound 1, (Z)-3-Acetylmethylene-1-azabicyclo[2.2.2]octane oxalate]
IC50 [1]: 23 nM | Oxo/MCC Ratio ([1]; selectivity nicotinic versus muscarinic: ^3 H-Oxo IC50 / ^3 H-MCC IC50): 52 | IC50 [2]: 1200 nM
